The values below come from US8889744B2, “Bis-trifluoromethyl honokiol analogs and their use in treating cancers” (priority 2009, dated 2014).

Series [1] has as its system SVR cells. To be noted: in vitro; cited from earlier work.
Series [2] relates to primary human endothelial cells. To be noted: cited from earlier work.
In another series the test system is angiosarcoma. To be noted: nude mice; cited from earlier work.
The next series has as its system SVR angiosarcoma cells. The series is described as follows: In vivo tumorigenesis, SVR tumor model in mice. The procedure:
SVR (5×10^5) cells were injected into the flank of 6-week-old nude male mice obtained from Charles River Breeding Laboratories. When tumors became visible at approximately 1 week after inoculation, mice received 3 mg/day hexafluoro-honokiol, tacrolomis, or vehicle control suspended in 20% Intralipid (Baxter Healthcare, Deerfield, Ill.) in a total volume of 0.3 ml intraperitoneally. Tumor volume was measured using the formula (width^2×length)×0.52 where width represents the shortest dimension.
The efficacy of the hexafluoro-honokiol compound was then tested in an SVR tumor model in mice, and compared to that of a control and to Tacrolimis. The assay was performed according to the conditions in J Biol Chem. 2003 Sep. 12; 278(37):35501-7, the contents of which are hereby incorporated by reference.
Nude mice injected with 0.5 million SVR angiosarcoma cells were treated with hexafluoro-honokiol (120 mg/kg), Tacrolimis, or control (Cancer Res. 2009 Jun. 1; 69(11):4621-8), with a total of 4 mice in each group. […] The degree of inhibition with hexafluoro-honokiol was more marked than with the same dose of Tacrolimis.

Series [3] concerns SVR cells. Briefly: SVR tumor volume, SVR cells grown in DMEM with 0.5% or 10% FBS. Type of series: in vivo, mice. To be noted: FIG. 3. How it is done:
FIG. 3 is a chart showing the effect of hexafluoro-honokiol on SVR tumor volume […] over time (days) in mice, as compared to control, where the SVR cells were grown in 0.5 and 10% serum Dulbecco's minimal essential media (DMEM).
Having shown that hexafluoro-honokiol appears to show better results than tacrolomis, a further experiment was conducted using SVR cells grown in Dulbecco's Modified Eagle Media (DMEM) supplemented with 0.5% or 10% fetal bovine serum (FBS), according to the techniques described in Bai, et al., J. Biol. Chem., Vol. 278, Issue 37, 35501-35507, Sep. 12, 2003.

In another series the test system is Rac-GTP (active Rac). Briefly: Rac activation pull-down assay (GST-PBD, Western blot). To be noted: DAOY medulloblastoma cells, FIG. 1. Type of series: cell-based. The procedure:
[…] Cells were lysed with ice-cold lysis buffer, containing 25 mM HEPES pH 7.5, 150 mM NaCl, 1% NP-40, 10 mM MgCl2, 1 mM EDTA, 10% glycerol and protease inhibitors. A sample was kept for total Rac and Ras level analysis.
The remaining lysate was used for the pull-down (Western Blot) assay to isolate the GTP-loaded forms of Rac or Ras using the p21-binding domain of PAK1 fused to glutathione S-transferase (GST-PBD) (Glaven et al., J. Biol. Chem., 274, 2279-2285 (1999)). The GST-PBD fusion protein was prepared as previously described (Abassi, Y. and Vuori, K. EMBO J. 21, 4571-4582 (2002)).
Activated (GTP-bound) Rac was affinity-precipitated with p21-activated kinase-1 protein binding domain peptide, which binds only to Rac-GTP and not Rac-GDP. p21-Activated kinase-1 protein binding domain-agarose (7.5 μg/mg cell lysate) was added, and the reaction mixture was gently rocked at 4° C. for 60 min. The agarose beads were collected by pulsing for 5 s in a microcentrifuge at 14,000×g, and the beads were washed three times with 0.5 ml of lysis buffer.
The agarose beads were resuspended in 40 μl of 1×SDS sample buffer and boiled for 5 min. The supernatant was separated by SDS-PAGE on a 12% gel, and the proteins were transferred to nitrocellulose membrane. […] After incubation with the secondary antibody, Rac and Ras were detected by enhanced chemiluminescence.

For series [4], the system named is A375 human melanoma cells. The series is described as follows: Human melanoma xenograft A375 in nude mice. Type of series: in vivo. To be noted: 120 mg/kg daily intraperitoneal, FIG. 4. How it is done: The compound was evaluated in conjunction with control, and with a different honokiol analogue, the bis-dichloroacetate. A375 human melanoma cells were injected into nude mice (3 mice pre treatment group) and received vehicle (intralipid) or 120 mg/kg honokiol bisdichloroacetate ester (honokiol DCA) or hexafluoro, via daily intraperitoneal administration. The volume of the tumors was calculated by the formula volume=(width squared times length) 0.52, where width is the shortest dimension.

“Also recorded” adds a separate entry of the source.

Consider honokiol, for which the “anti-proliferative activity against SVR cells” value in the series with SVR cells [1] is given as “potent anti-proliferative activity”. For the same compound, the “inhibition of primary human endothelial cells compared with fibroblasts” value in series [2] is “preferential inhibition”. Moreover, the efficacy against angiosarcoma entry with angiosarcoma is “highly effective”.
As for `C=CCc1cc(C(c2ccc(O)c(CC=C)c2)(C(F)(F)F)C(F)(F)F)ccc1O` [hexafluoro-honokiol, 2,2-bis(3-allyl-4-hydroxy-phenyl)-1,1,1,3,3,3-hexafluoropropane], the “weight loss or other toxicities” value in the series on SVR angiosarcoma cells (3 mg/day intraperitoneally in 20% Intralipid) is “No weight loss or other toxicities were observed”. In addition, the “tumor volume versus control” value with SVR angiosarcoma cells (120 mg/kg (3 mg/day) intraperitoneally, FIG. 2) was “significantly different at all time points”. For the same compound, in the series with SVR angiosarcoma cells (same dose, FIG. 2), the “degree of inhibition of tumor volume compared with Tacrolimis” value is given as “more marked”. Also, the “tumor volume over time versus control” value in the series on SVR cells [3] was “significantly better than control”. Also, the “levels of total Rac” value with Rac-GTP (active Rac) is given as “not decreased”. Further, in the series on Rac-GTP (active Rac) (with PDGF-BB), the “levels of Rac-GTP (active Rac)” value is recorded as “significantly decreased; also recorded: disappearance of RAC-GTP”. Moreover, in series [4], the “efficacy of the two compounds compared with each other” value is given as “comparable efficacy” and the “tumor volume versus control” value is “significantly better than control”.
Consider `C=CCc1ccc(OC(=O)C(Cl)Cl)c(-c2ccc(OC(=O)C(Cl)Cl)c(CC=C)c2)c1` [honokiol bis-dichloroacetate, honokiol bisdichloroacetate ester, reference compound], for which, in series [4], the “efficacy of the two compounds compared with each other” value is reported as “comparable efficacy” and the “tumor volume versus control” value is “significantly better than control”.
